Source: ChEMBL document CHEMBL1158539, “Synthesis and biological activity of 2H-quinolizin-2-one based p38alpha MAP kinase inhibitors” (Bioorg Med Chem Lett, 2010)
Each block holds one molecule with its values, some of them ahead of it. The source made the active and inactive calls. The rule behind the calls is not given here.

Legend:
[1] = AUC in monkey at 0.25 mg/kg, iv and 2 mg/kg, po; assay type: ADME, organism-based, Macaca mulatta; details: rhesus monkey, plasma
[2] = target: Voltage-gated inwardly rectifying potassium channel KCNH2 (Homo sapiens, UniProt Q12809)
Voltage-gated inwardly rectifying potassium channel KCNH2, sequence (Q12809 whole entry): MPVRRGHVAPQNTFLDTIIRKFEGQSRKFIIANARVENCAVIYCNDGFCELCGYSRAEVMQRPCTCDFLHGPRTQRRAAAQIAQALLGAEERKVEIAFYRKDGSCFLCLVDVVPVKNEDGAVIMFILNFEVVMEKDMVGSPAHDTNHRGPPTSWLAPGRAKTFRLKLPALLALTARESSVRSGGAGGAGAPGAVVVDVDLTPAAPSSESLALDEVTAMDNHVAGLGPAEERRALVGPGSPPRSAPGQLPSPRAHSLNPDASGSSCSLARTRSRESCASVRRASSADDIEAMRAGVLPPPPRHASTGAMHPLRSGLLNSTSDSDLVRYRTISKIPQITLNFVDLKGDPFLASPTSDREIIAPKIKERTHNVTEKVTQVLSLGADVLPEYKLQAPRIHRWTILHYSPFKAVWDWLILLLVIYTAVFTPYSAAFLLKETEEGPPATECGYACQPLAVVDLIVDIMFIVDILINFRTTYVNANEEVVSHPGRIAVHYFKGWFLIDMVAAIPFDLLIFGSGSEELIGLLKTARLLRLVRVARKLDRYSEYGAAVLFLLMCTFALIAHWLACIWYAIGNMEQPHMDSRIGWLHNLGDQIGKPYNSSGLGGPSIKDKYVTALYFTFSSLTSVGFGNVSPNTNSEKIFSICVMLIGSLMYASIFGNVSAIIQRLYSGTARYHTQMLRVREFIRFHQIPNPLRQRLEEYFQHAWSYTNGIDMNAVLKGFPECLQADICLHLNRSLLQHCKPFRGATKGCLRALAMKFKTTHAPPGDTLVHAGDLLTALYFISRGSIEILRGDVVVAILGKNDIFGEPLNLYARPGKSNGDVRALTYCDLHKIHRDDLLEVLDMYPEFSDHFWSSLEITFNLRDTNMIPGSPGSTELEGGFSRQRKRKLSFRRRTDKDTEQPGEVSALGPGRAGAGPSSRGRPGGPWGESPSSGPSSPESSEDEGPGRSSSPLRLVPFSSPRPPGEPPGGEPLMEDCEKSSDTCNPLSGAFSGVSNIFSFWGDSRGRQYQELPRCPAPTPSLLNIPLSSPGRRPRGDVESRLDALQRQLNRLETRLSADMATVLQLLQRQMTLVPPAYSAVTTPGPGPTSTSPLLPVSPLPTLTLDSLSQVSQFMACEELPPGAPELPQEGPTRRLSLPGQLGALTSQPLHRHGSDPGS
Description: Displacement of labeled MK-499 from human ERG in HEK293 cells

[3] = AUC in rat at 1 mg/kg, iv and 2 mg/kg, po; assay type: ADME, organism-based; details: plasma
[4] = AUC in dog at 0.25 mg/kg, iv and 2 mg/kg, po; assay type: ADME, organism-based, Canis lupus familiaris; details: plasma
[5] = Clearance in rat at 1 mg/kg, iv and 2 mg/kg, po; assay type: ADME, organism-based; details: in vivo
[6] = test system: Blood; assay: tissue or blood; details: Homo sapiens
Description: (§1) Inhibition of LPS-induced TNFalpha production in human whole blood

[7] = Half life in monkey at 0.25 mg/kg, iv and 2 mg/kg, po; assay type: ADME, organism-based, Macaca mulatta; details: rhesus monkey, in vivo
[8] = Half life in rat at 1 mg/kg, iv and 2 mg/kg, po; assay type: ADME, organism-based; details: in vivo
[9] = test system: THP-1; assay: cells; details: Homo sapiens, THP-1, 4 h
Description: Inhibition of LPS-induced TNFalpha production in human THP1 cells after 4 hrs by ELISA

[10] = Oral bioavailability in dog at 2 mg/kg; assay type: ADME, organism-based, Canis lupus familiaris; details: in vivo
[11] = Half life in dog at 0.25 mg/kg, iv and 2 mg/kg, po; assay type: ADME, organism-based, Canis lupus familiaris; details: in vivo
[12] = Clearance in monkey at 0.25 mg/kg, iv and 2 mg/kg, po; assay type: ADME, organism-based, Macaca mulatta; details: rhesus monkey, in vivo
[13] = target: Mitogen-activated protein kinase 14 (Mus musculus, UniProt P47811)
Mitogen-activated protein kinase 14, sequence (P47811 whole entry): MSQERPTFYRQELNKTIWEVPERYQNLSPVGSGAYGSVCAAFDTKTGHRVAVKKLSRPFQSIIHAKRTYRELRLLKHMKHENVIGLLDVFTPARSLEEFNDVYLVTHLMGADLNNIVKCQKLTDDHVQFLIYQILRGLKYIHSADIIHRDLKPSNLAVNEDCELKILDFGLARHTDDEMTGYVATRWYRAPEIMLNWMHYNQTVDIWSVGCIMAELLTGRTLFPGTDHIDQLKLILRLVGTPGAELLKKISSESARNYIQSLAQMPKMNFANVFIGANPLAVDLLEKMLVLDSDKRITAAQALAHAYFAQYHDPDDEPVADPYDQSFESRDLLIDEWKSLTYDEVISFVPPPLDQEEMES
Description: Inhibition of mouse p38alpha after 3 hrs by SPA method

[14] = Oral bioavailability in monkey at 2 mg/kg; assay type: ADME, organism-based, Macaca mulatta; details: rhesus monkey, in vivo
[15] = Oral bioavailability in rat at 2 mg/kg; assay type: ADME, organism-based; details: in vivo
[16] = Displacement of labeled diltiazem from calcium channel in guinea-pig hind limb skeletal muscle homogenates
[17] = Clearance in dog at 0.25 mg/kg, iv and 2 mg/kg, po; assay type: ADME, organism-based, Canis lupus familiaris; details: in vivo
[18] = Lipophilicity, log D of the compound; assay type: physicochemical; details: octanol/water
[19] = test system: Rattus norvegicus; assay: Antiarthritic activity in rat assessed as reduction of LPS-induced TNFalpha level at 1 mg/kg after 24 hrs; assay type: functional, organism-based; set-up: dose 1 mg/kg
[20] = test system: Rattus norvegicus; assay: Antiarthritic activity in rat assessed as reduction of LPS-induced TNFalpha level at 0.03 mg/kg after 4 hrs; assay type: functional; set-up: scale not given: the % may be the effect or the level left
[21] = test system: Rattus norvegicus; assay: Antiarthritic activity in rat assessed as reduction of LPS-induced TNFalpha level at 3 mg/kg after 24 hrs; assay type: functional, organism-based; set-up: dose 3 mg/kg
[22] = test system: Rattus norvegicus; assay: Antiarthritic activity in rat assessed as reduction of LPS-induced TNFalpha level at 30 mg/kg after 24 hrs; assay type: functional, organism-based; set-up: dose 30 mg/kg
[23] = test system: Rattus norvegicus; assay: Antiarthritic activity in rat assessed as reduction of LPS-induced TNFalpha level at 3 mg/kg after 4 hrs; assay type: functional; set-up: scale not given: the % may be the effect or the level left
[24] = test system: Rattus norvegicus; assay: Antiarthritic activity in rat assessed as reduction of LPS-induced TNFalpha level at 10 mg/kg after 24 hrs; assay type: functional, organism-based; set-up: dose 10 mg/kg
[25] = test system: Rattus norvegicus; assay: Antiarthritic activity in rat assessed as reduction of LPS-induced TNFalpha level at 1 mg/kg after 4 hrs; assay type: functional; set-up: scale not given: the % may be the effect or the level left
[26] = test system: Blood
Description: as §1

[27] = target: T1, Nuclear receptor subfamily 1 group I member 2 (Homo sapiens, UniProt O75469); assay: Activation of PXR
T1 sequence (O75469 whole entry): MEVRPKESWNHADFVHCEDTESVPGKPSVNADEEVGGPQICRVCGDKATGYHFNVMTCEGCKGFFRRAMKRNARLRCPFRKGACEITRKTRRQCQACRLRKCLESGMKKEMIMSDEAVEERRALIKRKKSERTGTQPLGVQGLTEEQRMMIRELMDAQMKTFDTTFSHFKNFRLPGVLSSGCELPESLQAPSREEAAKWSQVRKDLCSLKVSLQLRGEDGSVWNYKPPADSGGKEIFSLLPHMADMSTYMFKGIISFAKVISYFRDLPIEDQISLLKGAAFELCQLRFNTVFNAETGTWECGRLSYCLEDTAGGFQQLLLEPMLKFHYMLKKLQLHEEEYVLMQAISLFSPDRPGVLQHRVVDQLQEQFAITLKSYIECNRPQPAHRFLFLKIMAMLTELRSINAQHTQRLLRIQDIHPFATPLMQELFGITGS

[28] = Half life in monkey; assay type: ADME, organism-based, Macaca mulatta; details: rhesus monkey, in vivo
[29] = Half life in dog; assay type: ADME, organism-based, Canis lupus familiaris; details: in vivo

AUC [1]: 5.1 µM·h | AUC [3]: 25.6 µM·h | AUC [4]: 49.3 µM·h | clearance [5]: 3.1 mL/min/kg | IC50 [6]: 45.4 nM | half-life [7]: 5.9 h | half-life [8]: 1.8 h | IC50 [9]: 25.4 nM | bioavailability [10]: 45% | half-life [11]: 30.4 h | clearance [12]: 3.6 mL/min/kg | IC50 [13]: 13 nM | bioavailability [14]: 47% | bioavailability [15]: 100% | IC50 [16]: > 30000 nM | clearance [17]: 0.49 mL/min/kg
Structure (SMILES): O=c1ccn2c(-c3ccc(F)cc3F)cccc2c1-c1cc(-c2nnco2)ccc1F
Ki [2]: > 20000 nM

logD [18]: 4.2
Structure (SMILES): O=C1NCc2c(-c3ccc(F)cc3F)cc(N3CCNCC3)cc2N1c1c(Cl)cccc1Cl

AUC [1]: 23.9 µM·h | AUC [3]: 21.7 µM·h | AUC [4]: 58.6 µM·h | clearance [5]: 2.4 mL/min/kg | half-life [7]: 9.5 h | half-life [8]: 1.4 h | bioavailability [10]: 66% | half-life [11]: 12 h | clearance [12]: 0.9 mL/min/kg | bioavailability [14]: 55% | bioavailability [15]: 68% | clearance [17]: 0.88 mL/min/kg
Structure (SMILES): Cc1nnc(-c2ccc(F)c(-c3c(=O)ccn4c(-c5ccc(F)cc5F)cccc34)c2)o1
Activity [19]: Active | Activity [20]: 50% | Activity [21]: Active | Activity [22]: Active | Activity [23]: >90% | Activity [24]: Active | Activity [25]: >90%

IC50 [9]: 6490 nM | IC50 [13]: 1.5 nM | IC50 [26]: Not Active | EC50 [27]: > 30000 nM
Structure (SMILES): COC(=O)c1cc(F)c(-c2c(=O)ccn3c(-c4ccc(F)cc4F)cccc23)c(F)c1

IC50 [9]: 6490 nM | IC50 [13]: 1.5 nM | IC50 [26]: Not Active | EC50 [27]: > 30000 nM
Structure (SMILES): N#Cc1cc(F)c(-c2c(=O)ccn3c(-c4ccc(F)cc4F)cccc23)c(F)c1

IC50 [6]: 1580 nM | IC50 [9]: 270 nM | IC50 [13]: 6.8 nM | EC50 [27]: > 30000 nM
Structure (SMILES): Nc1nnc(-c2cc(F)c(-c3c(=O)ccn4c(-c5ccc(F)cc5F)cccc34)c(F)c2)o1

IC50 [6]: 775 nM | IC50 [9]: 265 nM | IC50 [13]: 5.3 nM | EC50 [27]: > 30000 nM
Structure (SMILES): O=c1ccn2c(-c3ccc(F)cc3F)cccc2c1-c1c(F)cc(-c2nnco2)cc1F

IC50 [6]: 980 nM | IC50 [9]: 180 nM | IC50 [13]: 20 nM | EC50 [27]: > 30000 nM
Structure (SMILES): NC(=O)c1cc(F)c(-c2c(=O)ccn3c(-c4ccc(F)cc4F)cccc23)c(F)c1

logD [18]: 2.7 | IC50 [13]: 0.6 nM | IC50 [16]: 4600 nM
Structure (SMILES): Nc1cc2c(ccc(=O)n2-c2c(F)cccc2F)c(-c2ccc(F)cc2F)n1
Ki [2]: 5100 nM

half-life [28]: > 100 h | logD [18]: 2.5 | half-life [29]: 20 h
Structure (SMILES): O=c1ccn2c(-c3ccc(F)cc3F)cccc2c1-c1c(F)cccc1F

IC50 [6]: 690 nM | IC50 [9]: 430 nM | IC50 [13]: 8.8 nM | EC50 [27]: > 30000 nM
Structure (SMILES): Cc1noc(-c2cc(F)c(-c3c(=O)ccn4c(-c5ccc(F)cc5F)cccc34)c(F)c2)n1
